# Laboratory results published in patent publication US20240082273A1, “NEUROKININ INHIBITORS SUCH AS APREPITANT FOR TREATING NON SMALL CELL LUNG CARCINOMA OR BREAST CANCER WITHOUT MUTATIONS” (priority 2020, published 2024).
# Experiments:
# [1] = tested on: breast cancer cell lines ER−/PR−/HER2− (MDAMB231, MDAMB435, MDAMB468); experiment: MTT proliferation, breast cancer cell lines ER−/PR−/HER2−; type: cell-based, human; details: for Mean proliferation: 48 hours
# Description: All cells were cultured in wells under vendor-recommended conditions and exposed to different concentrations of aprepitant for 48 hours. In each case a group of wells of cells were used to which no treatment was applied and which were considered as controls. At 48 hours the number of cells was measured. To measure cell viability, the cytotoxicity of drugs in culture was evaluated using the 3-(4,5-Dimethyl-2-thiazolyl)-2,5-diphenyl-2H-tetrazolium bromide (MTT) reduction assay. This assay assesses cell viability through the indirect measurement of the activity of reductases that convert yellow soluble MTT into purple insoluble formazan salts. As MTT can only be reduced when these enzymes are active, the reaction is used as an indicator of the cell metabolic competence and, therefore, of viability. A variable number of cells (depending on the cell line) were seeded in 96 multi-well plates and grown during 24 hours. The following day, the culture medium was aspirated and fresh culture medium with the drug dissolved was added to the wells. After 24 hours or 48 hours cell viability was measurement by adding 10 μl of a 5 mg/ml MTT solution (M5655; Sigma-Aldrich) and 100 μl of HCl 0.01M-SDS 10% solution 4 hours later. After 24 hours, the absorbance was measured at 595 nm, using a multi-well plate reader (iMark, Bio-rad). Each condition was tested 5 times, obtaining 5 values of absorbance. All sample measurements were corrected using the blank (culture medium without cells) mean absorbance value, and normalized to positive control to determinate relative cell viability for each condition at 24 and 48 hours.
# [2] = tested on: lung cancer cell lines with molecular profile EGFR−/ALK+/ROS1− (H322, H332); experiment: MTT proliferation, NSCLC cell lines with EGFR−/ALK+/ROS1− profile; type: cell-based, human; details: 48 hours
# From the text: (§1) EGFR, ALK and ROS1 are key molecular factors that may be used to determine pathological classification, prognosis, therapeutics and behaviour in patients with lung cancer. EGFR, ALK and ROS1 are biomarkers routinely analysed in the clinical practice of the management of patients with NSCLC. NSCLC with molecular profile EGFR-/ALK-/ROS1- presents a better response to treatment with the NK1 inhibitor aprepitant, compared to lung cancer with different profiles (in particular, EGFR+/ALK-/ROS1- and EGFR-/ALK+/ROS1-, in which EGFR and ALK respectively contain mutations relative to their wild type gene). Commercial lines of lung cancer were used as shown in Table 2 together with their molecular profile. The molecular profile of the cancer cell lines was determined by sequencing and can be consulted in the Cancer Cell Line Encyclopaedia database of public access available at the url: https://portals.broadinstitute.org/ccle All cells were cultured in wells under vendor-recommended conditions and exposed to different concentrations of aprepitant for 48 hours. In each case a group of wells of cells were used to which no treatment was applied and which were considered as controls. At 48 hours the number of cells was measured. Eight cell lines of human were used for the study of NK1 inhibitors (Table 3). All of them were maintained in culture in their respective culture media (Gibco,Thermo Fisher Scientific) supplemented with 10% foetal bovine serum (FBS) (Gibco, Thermo Fisher Scientific), 2 mM L-Glutamine (Gln) (Sigma-Aldrich, Merk), and […] and […] Gibco, Thermo Fisher Scientific) in a humidified incubator at 37° C. and 5% CO2. Cell culture media used are Dulbecco's Modified Eagle Medium (DMEM), and RPMI Medium 1640 (RPMI-1640). To measure cell viability, the cytotoxicity of drugs in culture was evaluated using the 3-(4,5-Dimethyl-2-thiazolyl)-2,5-diphenyl-2H-tetrazolium bromide (MTT) reduction assay. This assay assesses cell viability through the indirect measurement of the activity of reductases that convert yellow soluble MTT into purple insoluble formazan salts. As MTT can only be reduced when these enzymes are active, the reaction is used as an indicator of the cell metabolic competence and, therefore, of viability. A variable number of cells (depending on the cell line) were seeded in 96 multi-well plates and grown during 24 hours. The following day, the culture medium was aspirated and fresh culture medium with the drug dissolved was added to the wells. After 24 hours or 48 hours cell viability was measurement by adding 10 μl of a 5 mg/ml MTT solution (M5655; Sigma-Aldrich) and 100 μl of HCl 0.01M-SDS 10% solution 4 hours later. After 24 hours, the absorbance was measured at 595 nm, using a multi-well plate reader (iMark, Bio-rad). Each condition was tested 5 times, obtaining 5 values of absorbance. All sample measurements were corrected using the blank (culture medium without cells) mean absorbance value, and normalized to positive control to determinate relative cell viability for each condition at 24 and 48 hours.
# [3] = tested on: human primary triple negative breast carcinoma (ER−/PR−/HER2−) tumour cells; experiment: Primary triple negative breast carcinoma xenograft mouse model; type: in vivo, nu/nu Balb/c nude mice; details: for Mean proliferation: 28 days
# Description: Immunocompromised female mice, 5-6 weeks of age were used, nu/nu Balb/c nude mice, provided by Harlan Iberica Barcelona (Spain). They were kept at 24° C. and in sterile conditions with food and water “ad libitum”. They were injected with 2×10^7 tumour cells, corresponding to human primary triple negative breast carcinoma (i.e. tumour cells having a ER−/PR−/HER2− molecular profile) in 200 μl of PBS subcutaneous route. The tumour size was measured and the mice were evaluated for their state of health and weight daily. The mice were randomised in groups when the tumours reached a volume of 75 mm^3. One of the groups was treated with 200 μl of placebo (control group) and the eight remaining groups with doses of 1 to 100 mg per kilogram of weight and day of the NK1 inhibitor aprepitant. Five animals were treated per group, during 28 days. All the mice were sacrificed at the end of the experiment.
# [4] = tested on: H460; experiment: MTT proliferation, H460; type: cell-based, human; details: 48 hours
# From the text: as §1
structure (smiles),measurement,setting,value
C[C@@H](O[C@H]1OCCN(Cc2nc(=O)[nH][nH]2)[C@H]1c1ccc(F)cc1)c1cc(C(F)(F)F)cc(C(F)(F)F)c1 [Aprepitant],inhibition at 20 µM,"[1]; Homo sapiens, concentration of 20 μM (FIG. 5), read-out: growth inhibition",~60%
same,Mean proliferation,[1]; aprepitant 0.3 μM,98.63
same,Mean proliferation,[1]; aprepitant 1 μM,97.94
same,Mean proliferation,[1]; aprepitant 3 μM,98.98
same,Mean proliferation,[1]; aprepitant 10 μM,74.02
same,Mean proliferation,[1]; aprepitant 20 μM,42.89
same,Mean proliferation,[1]; aprepitant 30 μM,24.11
same,Mean proliferation,[1]; aprepitant 40 μM,7.53
same,Mean proliferation,[1]; aprepitant 50 μM,1.89
same,Mean proliferation,[1]; aprepitant 60 μM,6.77
same,"triple negative breast carcinoma proliferation in culture relative to ER+/PR+/HER2+, ER−/PR−/HER2+ and ER+/PR+/HER2−",[1]; dose dependent,reduces
same,Mean proliferation,[2]; aprepitant 1 μM,102.88
same,Mean proliferation,[2]; aprepitant 3 μM,92.41
same,Mean proliferation,[2]; aprepitant 5 μM,105.07
same,Mean proliferation,[2]; aprepitant 10 μM,108.06
same,Mean proliferation,[2]; aprepitant 20 μM,99
same,Mean proliferation,[2]; aprepitant 30 μM,88.22
same,Mean proliferation,[2]; aprepitant 40 μM,68.94
same,Mean proliferation,[2]; aprepitant 50 μM,37.3
same,Mean proliferation,[2]; aprepitant 60 μM,11.67
same,Mean proliferation,[3]; aprepitant 1 mg/kg/day,104
same,Mean proliferation,[3]; aprepitant 3 mg/kg/day,108
same,Mean proliferation,[3]; aprepitant 5 mg/kg/day,112
same,Mean proliferation,[3]; aprepitant 8 mg/kg/day,110
same,Mean proliferation,[3]; aprepitant 10 mg/kg/day,99
same,Mean proliferation,[3]; aprepitant 20 mg/kg/day,76
same,Mean proliferation,[3]; aprepitant 30 mg/kg/day,65
same,Mean proliferation,[3]; aprepitant 40 mg/kg/day,61
same,Mean proliferation,[3]; aprepitant 50 mg/kg/day,56
same,Mean proliferation,[3]; aprepitant 60 mg/kg/day,54
same,Mean proliferation,[3]; aprepitant 70 mg/kg/day,50
same,Mean proliferation,[3]; aprepitant 80 mg/kg/day,50
same,triple negative human primary breast carcinoma proliferation in a xenograft model,[3]; dose-dependent fashion,reduces
same,Mean proliferation,[4]; aprepitant 1 μM,91.72
same,Mean proliferation,[4]; aprepitant 3 μM,100.26
same,Mean proliferation,[4]; aprepitant 5 μM,67.81
same,Mean proliferation,[4]; aprepitant 10 μM,56.01
same,Mean proliferation,[4]; aprepitant 20 μM,31.24
same,Mean proliferation,[4]; aprepitant 30 μM,18.27
same,Mean proliferation,[4]; aprepitant 40 μM,14.74
same,Mean proliferation,[4]; aprepitant 50 μM,−0.95
same,Mean proliferation,[4]; aprepitant 60 μM,−1.95
